Data: paper PMC9968196, “Synthesis, Characterization, and Biological Evaluation of Meldrum’s Acid Derivatives: Dual Activity and Molecular Docking Study” (Pharmaceuticals, 2023)
In brackets after ≈: the same amount, converted by molar mass.

How the values were obtained:
[1] = Cytotoxicity, MTT assay, normal cells; format: cell-based, human; settings: human, MRC-5 normal lung fibroblast cells; MRC-5 normal fibroblast; 72 h
Protocol: (§1) Cell line cells were obtained from the American Type Culture Collection. Human cervical adenocarcinoma HeLa, human chronic myelogenous leukemia K562, non-small cell lung carcinoma A549, human colon carcinoma LS174, pancreatic carcinoma PaCa-2, and normal human lung fibroblast MRC-5 cell lines were grown in RPMI-1640 medium with 10% fetal bovine serum, L-glutamine, and penicillin–streptomycin solution. Cells were plated into the 96-well cell culture plates. Cells were incubated at 37 °C in CO2 incubator. Adherent cell lines were incubated for 20 h before addition of tested compounds. Two hours before addition of compounds, K562 cells were seeded into 96-well plates. The tested compounds were applied at five different concentrations ranging from 10 to 300 µM for 72 h. Thereafter, the survival of cells was determined by MTT assay in accordance with the protocol established by Mosmann and Ohno and Abe. The solution of MTT was added to blank and cell samples. The plates were incubated for 5 h at 37 °C, and then 10% solution of sodium dodecyl sulfate was added to the wells. The absorbance was measured at 570 nm using Thermo Scientific Multiskan EX plate reader. Three independent experiments were performed.

[2] = tested on: human colon carcinoma LS174; test: Cytotoxicity, MTT assay; format: cell-based
Protocol: as §1

[3] = tested on: pancreatic carcinoma PaCa-2; test: Cytotoxicity, MTT assay; format: cell-based; settings: Homo sapiens, 72 h
Protocol: as §1

[4] = tested on: human chronic myelogenous leukemia K562; test: Cytotoxicity, MTT assay; format: cell-based; settings: 72 h
Protocol: as §1

[5] = tested on: human cervical adenocarcinoma HeLa; test: Cytotoxicity, MTT assay; format: cell-based; settings: for IC50: Homo sapiens, HeLa, 72 h; for selectivity index (SI): HeLa cells versus MRC-5
Protocol: as §1

[6] = tested on: Bacillus cereus (ATCC 10987); test: Antimicrobial activity, broth microdilution MIC with resazurin; format: cell-based; settings: ATCC10987, B. cereus, 37 °C, 24 h, average of three independent experiments
Protocol: (§2) The following strains of bacteria were used as test organisms in this study: Staphylococcus aureus (ATCC 25923), Bacillus subtilis (ATCC 6633), Bacillus cereus (ATCC 10987), and Escherichia coli (ATCC 25922). All the bacteria used were obtained from the American Type Culture Collection (ATCC). Cultures were stored at 4 °C and subcultured every 15 days. The minimal inhibitory concentration (MIC) was determined by the broth microdilution method using 96-well micro-titer plates. A series of dilutions of the tested compounds was used in the experiment against every microorganism. The starting solutions of tested compounds were obtained by measuring off a certain quantity of the compounds and dissolving it in 5% DMSO. The MIC was determined with resazurin. The inoculated plates were incubated at 37 °C for 24 h. Resazurin is an oxidation–reduction indicator used for the evaluation of microbial growth. It is a blue non-fluorescent dye that becomes pink and fluorescent when reduced to resorufin by oxidoreductases within viable cells. The boundary dilution without any changing in color of resazurin was defined as the MIC for the tested microorganism at a given concentration. As a positive control of growth inhibition, streptomycin was used. A 5% DMSO solution was used as a negative control for the influence of the solvents.

[7] = tested on: Staphylococcus aureus (ATCC 25923); test: as above; format: cell-based; settings: ATCC25923, S. aureus, 37 °C, 24 h, average of three independent experiments
Protocol: as §2

[8] = tested on: Escherichia coli (ATCC 25922); test: as above; format: cell-based; settings: ATCC25922, E. coli, 37 °C, 24 h, average of three independent experiments
Protocol: as §2

[9] = tested on: Bacillus subtilis (ATCC 6633); test: as above; format: cell-based; settings: ATCC6633, B. subtilis, 37 °C, 24 h, average of three independent experiments
Protocol: as §2

[10] = tested on: non-small cell lung carcinoma A549; test: Cytotoxicity, MTT assay; format: cell-based, human; settings: for IC50: Homo sapiens, A549, 72 h; for selectivity index (SI): A549 cells versus MRC-5
Protocol: as §1

Gyrase B of E. Coli = tested on: Gyrase B of E. Coli; design: method as in PMID 31257079; settings: read-out: inhibitory activity IC50; cited from earlier work
[11] = tested on: normal human lung fibroblast MRC-5; test: Cytotoxicity, MTT assay, normal cells; format: cell-based; settings: MRC-5
Protocol: as §1

[12] = design: method as in PMID 34019615, PMID 20000793; settings: cited from earlier work

Row | MIC [6] [µM] | MIC [7] [µM] | MIC [8] [µM] | MIC [9] [µM] | SMILES | IC50 at 72 h [1] [µM] | IC50 ([2]; Homo sapiens, LS174, 72 h) [µM] | IC50 [3] [µM] | IC50 [4] [µM] | IC50 [5] [µM] | IC50 [10] [µM] | IC50 (Gyrase B of E. Coli) [µM] | toxicity towards MRC-5 cell lines (in words) [11] | selectivity index (SI) [5] | selectivity index (SI) [10] | IC50 ([2]; 72 h) [µM] | pKa [12]
1 | 172 (≈ 59.4 µg/mL) | 206 (≈ 71.3 µg/mL) | 85.1 (≈ 29.5 µg/mL) | 180 (≈ 62.5 µg/mL) | COc1cc(C=C2C(=O)OC(C)(C)OC2=O)ccc1OC(=O)C1CC1 [3c, 2′-methoxy-4′-((2,2-dimethyl-4,6-dioxo-1,3-dioxan-5-ylidene)methyl)phenyl cyclopropanecarboxylate] | > 200 | 99.6 ± 1.44 | 172 ± 5.25 | 70.2 ± 1.68 | 84.6 ± 1.84 | 45.7 ± 1.65 |  |  |  |  |  | 
2 | 42.3 (≈ 15.3 µg/mL) | 73.9 (≈ 26.8 µg/mL) | 37.5 (≈ 13.6 µg/mL) | 48.3 (≈ 17.5 µg/mL) | CCCCCCOc1ccc(C=C2C(=O)OC(C)(C)OC2=O)cc1OC [3f, 5-(4′-hexyloxy-3′-methoxybenzylidene)-2,2-dimethyl-1,3-dioxane-4,6-dione] | 144 ± 2.84 | 45.3 ± 0.58 | 110 ± 1.75 | 71.9 ± 1.65 | 63.5 ± 0.45 | 39.6 ± 0.74 |  |  |  |  |  | 
3 |  |  |  |  | CCNC(=O)Nc1cc(-n2cc(Br)cn2)c(C(=O)Nc2cccnc2)cn1 [P3C, 4-(4-bromo-1H-pyrazol-1-yl)-6-[(ethylcarbamoyl)amino]-N-(pyridine-3-yl)pyridine-3-carboxamide] |  |  |  |  |  |  | 0.037 |  |  |  |  | 
4 | 0.003 (≈ 0.00174 µg/mL) | 0.005 (≈ 0.00291 µg/mL) | 0.01 (≈ 0.00582 µg/mL) | 0.003 (≈ 0.00174 µg/mL) | [H]/N=C(/N)N[C@H]1[C@H](O)[C@@H](O)[C@H](O[C@@H]2O[C@@H](C)[C@](O)(C=O)[C@H]2O[C@@H]2O[C@@H](CO)[C@H](O)[C@@H](O)[C@@H]2NC)[C@@H](N/C(N)=N\[H])[C@@H]1O [streptomycin, reference compound] |  |  |  |  |  |  |  |  |  |  |  | 
5 | 37.5 (≈ 14.1 µg/mL) | 60.4 (≈ 22.7 µg/mL) | 36.1 (≈ 13.6 µg/mL) | 45.2 (≈ 17 µg/mL) | CCCCCCCOc1ccc(C=C2C(=O)OC(C)(C)OC2=O)cc1OC [3g, 5-(4′-heptyloxy-3′-methoxybenzylidene)-2,2-dimethyl-1,3-dioxane-4,6-dione] | 139 ± 3.07 | 47.1 ± 1.69 | 94.2 ± 1.09 | 69.5 ± 1.37 |  | 35.1 ± 0.27 |  |  |  |  |  | 
6 | 64.8 (≈ 25.3 µg/mL) | 54.2 (≈ 21.2 µg/mL) | 14.7 (≈ 5.74 µg/mL) | 31.5 (≈ 12.3 µg/mL) | CCCCCCCCOc1ccc(C=C2C(=O)OC(C)(C)OC2=O)cc1OC [3h, 5-(3′-methoxy-4′-octyloxybenzylidene)-2,2-dimethyl-1,3-dioxane-4,6-dione] | 72.8 ± 0.77 | 36.5 ± 0.24 | 90.5 ± 0.83 | 73.5 ± 1.43 | 18.2 ± 0.11 | 27.4 ± 0.78 |  | moderate toxicity | 2.9 | 4.3 |  | 
7 |  |  | 115 (≈ 37.3 µg/mL) |  | COc1cc(C=C2C(=O)OC(C)(C)OC2=O)cc([N+](=O)[O-])c1O [3a, 5-(4′-hydroxy-3′-methoxy-5′-nitrobenzylidene)-2,2-dimethyl-1,3-dioxane-4,6-dione] | > 200 | > 200 | > 200 | 151 ± 3.47 | 126 ± 1.45 | > 200 |  |  |  |  |  | 
8 | 174 (≈ 58.2 µg/mL) | 210 (≈ 70.4 µg/mL) | 89.5 (≈ 29.9 µg/mL) | 175 (≈ 58.6 µg/mL) | CCC(=O)Oc1ccc(C=C2C(=O)OC(C)(C)OC2=O)cc1OC [3b, 2′-methoxy-4′-((2,2-dimethyl-4,6-dioxo-1,3-dioxan-5-ylidene)methyl)phenyl propionate] | > 200 | 105 ± 4.62 | 153 ± 4.29 | 74.5 ± 1.73 | 102 ± 2.14 | 41.2 ± 1.74 |  |  |  |  |  | 
9 | 168 (≈ 69.4 µg/mL) | 200 (≈ 82.3 µg/mL) | 74.8 (≈ 30.8 µg/mL) | 169 (≈ 69.7 µg/mL) | COc1ccc(C(=O)Oc2ccc(C=C3C(=O)OC(C)(C)OC3=O)cc2OC)cc1 [3d, 2′-methoxy-4′-((2,2-dimethyl-4,6-dioxo-1,3-dioxan-5-ylidene)methyl)phenyl 4-methoxybenzoate] | > 200 | 118.9 ± 0.95 | 145 ± 2.92 | 105.1 ± 0.92 | 94.5 ± 3.15 | 36.2 ± 0.39 |  |  |  |  |  | 
10 | 41.5 (≈ 17.4 µg/mL) | 50.9 (≈ 21.3 µg/mL) | 12.4 (≈ 5.19 µg/mL) | 29.5 (≈ 12.3 µg/mL) | CCCCCCCCCCOc1ccc(C=C2C(=O)OC(C)(C)OC2=O)cc1OC [3i, 5-(4′-decyloxy-3′-methoxybenzylidene)-2,2-dimethyl-1,3-dioxane-4,6-dione] | 74.6 ± 1.46 | 20.8 | 58.2 ± 0.74 | 63.7 ± 2.49 | 15.7 ± 0.28 | 21.8 ± 0.91 |  | moderate toxicity | 4.8 |  | 30.5 ± 0.35 | 
11 |  |  |  |  | CC1(C)OC(=O)CC(=O)O1 [Meldrum’s acid] |  |  |  |  |  |  |  |  |  |  |  | 4.9
12 | 80.5 (≈ 33 µg/mL) | 145 (≈ 59.6 µg/mL) | 38.1 (≈ 15.6 µg/mL) | 133 (≈ 54.6 µg/mL) | COc1cc(C=C2C(=O)OC(C)(C)OC2=O)ccc1OCCOCCOCCO [3e, 5-(4′-(2″-(2′″-(2″″-hydroxyethoxy)ethoxy)ethoxy)-3′-methoxybenzylidene)-2,2-dimethyl-1,3-dioxane-4,6-dione] | 111 ± 2.19 | 38.1 ± 0.41 | 182 ± 3.94 | 80.5 ± 2.36 | 37.3 ± 1.2 | 25.9 ± 0.46 |  |  | 4.0 | 2.6 |  | 
